Test results: patent US8507493B2 (AbbVie Inc., priority 2009, dated 2013)

Target: T1, human 11β-HSD1 (Homo sapiens, UniProt P28845)
T1 construct: truncated (24-287aa) human 11β-HSD1 enzyme; made in house; host or cells: E. coli (lysate, not purified)
Assay: Human 11β-HSD1 enzymatic SPA assay
Format: biochemical
Conditions: truncated (24-287aa) human 11β-HSD1, apparent Ki from IC50 by Cheng-Prusoff
Method: The ability of test compounds to inhibit human 11β-HSD1 enzymatic activity in vitro was evaluated in a Scintillation Proximity Assay (SPA). Tritiated-cortisone substrate, NADPH cofactor and titrated compound were incubated with truncated (24-287aa) human 11β-HSD1 enzyme at room temperature to allow the conversion to cortisol to occur. The reaction was stopped by adding a non-specific 11β-HSD inhibitor, glycyrrhetinic acid. The tritiated cortisol was captured by a mixture of an anti-cortisol monoclonal antibody and SPA beads coated with anti-mouse antibodies. The reaction plate was shaken at room temperature and the radiolabel bound to SPA beads was then measured on a scintillation counter. The 11β-HSD1 assay was carried out in 96-well microtiter plates in a total volume of […]. To start the assay, 188 μL of master mix which contained 75 nM ^3H-cortisone, 100 nM cortisone and 181 μM NADPH was added to the wells. In order to drive the reaction in the 11β-reductase direction, 1 mM glucose-6-phosphate (G-6-P) and 1 U/mL G-6-P dehydrogenase were also added as a NADPH generating system. Solid compound was dissolved in dimethyl sulfoxide to make a 10 mM stock followed by a subsequent 10-fold serial dilution with dimethyl sulfoxide. Each compound solution in dimethyl sulfoxide was 10-fold diluted in Tris/EDTA buffer (pH 7.4). 22 μL of titrated compound were then added in duplicate to the substrate. Reactions were initiated by the addition of 10 μL of 0.1 mg/mL E. coli lysates overexpressing 11β-HSD1 enzyme. After shaking and incubating plates for 30 minutes at room temperature, reactions were stopped by adding 10 μL of 1 mM glycyrrhetinic acid. The product, tritiated cortisol, was captured by adding 10 μL of 1 μM monoclonal mouse anti-cortisol antibodies and 50 μL of SPA beads coated with anti-mouse antibodies. After shaking for 30 minutes, plates were read in a Microbeta scintillation counter. Percent inhibition was calculated based on the background and the maximal signal. Wells that contained substrate without compound or enzyme were used as the background, while the wells that contained substrate and enzyme without any compound were considered as maximal signal. Percent of inhibition of each compound was calculated relative to the maximal signal and IC50 curves were generated. Assuming competitive inhibition the Cheng-Prusoff equation was used to calculate apparent Ki values from the IC50 values. This assay was applied to 11β-HSD2 as well, whereby 6 nM tritiated cortisol and 250 uM NAD^+ were used as substrate and cofactor, respectively.

T1 sequence (P28845 24-287): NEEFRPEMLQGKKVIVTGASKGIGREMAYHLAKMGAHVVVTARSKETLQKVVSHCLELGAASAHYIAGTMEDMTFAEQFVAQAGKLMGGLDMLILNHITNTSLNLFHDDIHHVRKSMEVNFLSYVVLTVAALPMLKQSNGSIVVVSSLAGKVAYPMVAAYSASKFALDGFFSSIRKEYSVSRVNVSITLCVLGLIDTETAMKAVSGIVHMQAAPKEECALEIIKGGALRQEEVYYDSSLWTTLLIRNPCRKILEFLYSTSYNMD

Q: For `CC(C)(Cc1ccc(Cl)cc1)C(=NC#N)NC1C2CC3CC1CC(O)(C3)C2` (centres unmarked) [Example 23, (1E)-3-(4-Chlorophenyl)-N′-cyano-N-[(E)-5-hydroxy-2-adamantyl]-2,2-dimethyl propanimidamide], which Ki is on record?
A: 100 to 1000 nM

Q: `CC(C)(Oc1ccc(Cl)cc1)C(=NC#N)NC1C2CC3CC1CC(S(N)(=O)=O)(C3)C2` (centres unmarked) [Example 10, (1E)-N-[(E)-5-(Aminosulfonyl)-2-adamantyl]-2-(4-chlorophenoxy)-N′-cyano-2-methylpropanimidamide] was tested. Which Ki did it give?
A: 100 to 1000 nM

Q: `COC(=O)C12CC3CC(C1)C(NC(=S)C(C)(C)OCc1ccc(C(F)(F)F)cc1)C(C3)C2` (centres unmarked) [Example 16, Methyl(E)-4-[(2-methyl-2-{[4-(trifluoromethyl)benzyl]oxy}propanethioyl)amino]adamantane-1-carboxylate] was tested. Which Ki did it give?
A: 100 to 1000 nM

Q: Which Ki does the source give for `CC(C)(Oc1ccccc1F)C(=NC#N)NC1C2CC3CC1CC(O)(C3)C2` (centres unmarked) [Example 80, (1E)-N′-cyano-2-(2-fluorophenoxy)-N-[(E)-5-hydroxyadamantan-2-yl]-2-methylpropanimidamide] here?
A: ≤ 10 nM

Q: How did the Ki turn out when `Cc1c(Cl)cccc1S(=O)(=O)N1CCC[C@H](C(=NC#N)NC2CCCCC2)C1` [Example 35, (3S)-1-[(3-Chloro-2-methylphenyl)sulfonyl]-N′-cyano-N-cyclohexylpiperidine-3-carboximidamide] was run?
A: > 1000 nM

Q: For `CC1(C)/C(=N/C#N)N([C@@H]2[C@@H]3C[C@@H]4C[C@H]2C[C@@](S(C)(=O)=O)(C4)C3)CC1COc1ccc(C#N)cn1` (some centres unmarked) [Example 33, (2Z)-4-{[(5-Cyanopyridin-2-yl)oxy]methyl}-3,3-dimethyl-1-[(E)-5-(methylsulfonyl)-2-adamantyl]pyrrolidin-2-ylidenecyanamide], which Ki is on record?
A: 100 to 1000 nM

Q: For `N#CN=C(COc1ccc(Cl)cc1)NC1C2CC3CC1CC(O)(C3)C2` (centres unmarked) [Example 7, (1E)-2-(4-Chlorophenoxy)-N′-cyano-N-[(E)-5-hydroxy-2-adamantyl]ethanimidamide], which Ki is on record?
A: > 1000 nM

Q: With `CC(C)(Oc1ccccc1F)C(=NC#N)NC1C2CC3CC1CC(S(N)(=O)=O)(C3)C2` (centres unmarked) [Example 79, (1E)-N′-cyano-2-(2-fluorophenoxy)-2-methyl-N-[(E)-5-sulfamoyladamantan-2-yl]propanimidamide] as the compound, how does the Ki read?
A: 10 to 100 nM

Q: Which Ki does the source give for `CC(C)(Oc1ccc(Cl)cc1)C(=NC#N)NC12CCC(C(F)F)(CC1)CC2` [Example 85, 2-(4-chlorophenoxy)-N′-cyano-N-[4-(difluoromethyl)bicyclo[2.2.2]oct-1-yl]-2-methylpropanimidamide] here?
A: 100 to 1000 nM

Q: Which Ki does the source give for `CC(C)(Oc1ccc(Cl)cc1F)C(=NC#N)NC12CC3CC(CC(C3)C1)C2` [Example 60] here?
A: 10 to 100 nM

Q: Which Ki does the source give for `CC(C)(Oc1ccc(Cl)cc1)C(=NC#N)NC1C2CC3CC1CN(C3)C2` (centres unmarked) [Example 39, (1E)-N-[(4s)-1-Azatricyclo[3.3.1.1^3,7]dec-4-yl]-2-(4-chlorophenoxy)-N′-cyano-2-methylpropanimidamide] here?
A: > 1000 nM

Q: `CC(C)(Oc1ccccc1)C(=NC#N)NC12CCC(C(N)=O)(CC1)CC2` [Example 82, 4-{[N-cyano-2-methyl-2-phenoxypropanimidoyl]amino}bicyclo[2.2.2]octane-1-carboxamide] was tested. Which Ki did it give?
A: 10 to 100 nM

Q: How did the Ki turn out when `CC(C)(Oc1ccc(F)cc1F)C(=NC#N)NC1C2CC3CC1CC(S(C)(=O)=O)(C3)C2` (centres unmarked) [Example 45, (1E)-N′-cyano-2-(2,4-difluorophenoxy)-2-methyl-N-[(E)-5-(methylsulfonyl)adamantan-2-yl]propanimidamide] was run?
A: ≤ 10 nM

Q: For `CC(C)(Oc1ccc(Cl)cc1)C(=NC#N)NC1CCCCCCC1` [Example 41, 2-(4-Chlorophenoxy)-N′-cyano-N-cyclooctyl-2-methylpropanimidamide], which Ki is on record?
A: 10 to 100 nM

Q: How did the Ki turn out when `COC(=O)C12CC3CC(C1)C(NC(=NC#N)C(C)(C)N1CC4CC(c5ccc(Cl)cc5)C4C1)C(C3)C2` (stereo not drawn) [Example 48, methyl(E)-4-({(1E)-2-[(1R*,5S*,6R*)-6-(4-chlorophenyl)-3-azabicyclo[3.2.0]hept-3-yl]-N-cyano-2-methylpropanimidoyl}amino)adamantane-1-carboxylate] was run?
A: 100 to 1000 nM

Q: `CC(C)(Oc1ccc(Cl)cn1)C(=NC#N)NC1C2CC3CC1CC(S(C)(=O)=O)(C3)C2` (centres unmarked) [Example 67, (1E)-2-[(5-chloropyridin-2-yl)oxy]-N-cyano-2-methyl-N-[(E)-5-(methylsulfonyl)adamantan-2-yl]propanimidamide] was tested. Which Ki did it give?
A: 100 to 1000 nM

Q: Which Ki does the source give for `CC(C)(OCc1ccc(C(F)(F)F)cc1)/C(=N\C#N)N[C@@H]1[C@@H]2C[C@@H]3C[C@H]1C[C@@](C(N)=O)(C3)C2` [Example 25, (E)-4-[((1E)-N-Cyano-2-methyl-2-{[4-(trifluoromethyl)benzyl]oxy}propanimidoyl)amino]adamantane-1-carboxamide] here?
A: 10 to 100 nM

Q: With `CC(C)(Oc1ccccn1)/C(=N\C#N)NC1C2CC3CC1CC(S(C)(=O)=O)(C3)C2` (centres unmarked) [Example 77, (1E)-N′-cyano-2-methyl-N-[(E)-5-(methylsulfonyl)adamantan-2-yl]-2-(pyridin-2-yloxy)propanimidamide] as the compound, how does the Ki read?
A: 100 to 1000 nM

Q: `CC(C)(Oc1ccc(Cl)cc1F)C(=NC#N)NC1C2CC3CC(C2)CC1C3` (centres unmarked) [Example 62, (1E)-N-[(E)-adamantan-2-yl]-2-(4-chloro-2-fluorophenoxy)-N-cyano-2-methylpropanimidamide] was tested. Which Ki did it give?
A: 10 to 100 nM

Q: For `CC(C)(Oc1ccccc1)/C(=N\C#N)N[C@@H]1[C@@H]2C[C@@H]3C[C@H]1C[C@@](C(N)=O)(C3)C2` [Example 50, (E)-4-{[(1E)-N-cyano-2-methyl-2-phenoxypropanimidoyl]amino}adamantane-1-carboxamide], which Ki is on record?
A: ≤ 10 nM

Q: Which Ki does the source give for `CC(C)(Oc1ccc(Cl)cc1F)/C(=N\C#N)NC1C2CC3CC1CC(C(N)=O)(C3)C2` (centres unmarked) [Example 74, (E)-4-{[(1E)-2-(4-chloro-2-fluorophenoxy)-N-cyano-2-methylpropanimidoyl]amino}adamantane-1-carboxamide] here?
A: ≤ 10 nM

Q: How did the Ki turn out when `CC(C)(Oc1ccc(Cl)cc1)C(=NC#N)NC12CCC(C(=O)O)(CC1)CC2` [Example 46, 4-{[2-(4-chlorophenoxy)-N-cyano-2-methylpropanimidoyl]amino}bicyclo[2.2.2]octane-1-carboxylic acid] was run?
A: > 1000 nM

Q: For `CC(C)(Oc1ccc(F)cc1F)C(=NC#N)NC1CCCCCCC1` [Example 65, N′-cyano-N-cyclooctyl-2-(2,4-difluorophenoxy)-2-methylpropanimidamide], which Ki is on record?
A: 100 to 1000 nM

Q: `CC(C)(Oc1ccc(F)cc1F)C(=NC#N)NC12CC3CC(CC1C3)C2` [Example 69] was tested. Which Ki did it give?
A: 10 to 100 nM

Q: `CC(C)(Oc1ccc(Cl)cc1)C(=S)NC1C2CC3CC1CC(S(C)(=O)=O)(C3)C2` (centres unmarked) [Example 9, 2-(4-Chlorophenoxy)-2-methyl-N-[(E)-5-(methylsulfonyl)-2-adamantyl]propanethioamide] was tested. Which Ki did it give?
A: 10 to 100 nM

Q: Which Ki does the source give for `COC(=O)C12CC3CC(C1)C(N/C(=N/C#N)C(C)(C)Oc1ccc(Cl)cc1F)C(C3)C2` (centres unmarked) [Example 63, methyl(E)-4-{[(1E)-2-(4-chloro-2-fluorophenoxy)-N-cyano-2-methylpropanimidoyl]amino}adamantane-1-carboxylate] here?
A: 10 to 100 nM

Q: Which Ki does the source give for `CC(C)(Oc1ccc(Cl)cc1)C(=NC#N)NC1CC2CCC1C2` (stereo not drawn) [Example 42, N-[exo-Bicyclo[2.2.1]hept-2-yl]-2-(4-chlorophenoxy)-N′-cyano-2-methylpropanimidamide] here?
A: 100 to 1000 nM

Q: `CC(C)(Oc1ccc(F)cc1Cl)C(=NC#N)NC1C2CC3CC1CC(O)(C3)C2` (centres unmarked) [Example 1, (1E)-2-(2-Chloro-4-fluorophenoxy)-Y-cyano-N-[(E)-5-hydroxy-2-adamantyl]-2-methylpropanimidamide] was tested. Which Ki did it give?
A: 10 to 100 nM

Q: Which Ki does the source give for `CC(C)(Oc1ccc(Cl)cc1)C(=NC#N)NC1C2CC3CC1CC(C(N)=O)(C3)C2` (centres unmarked) [Example 14, (E)-4-{[(1E)-2-(4-Chlorophenoxy)-N-cyano-2-methylpropanimidoyl]amino}adamantane-1-carboxamide] here?
A: ≤ 10 nM

Q: Which Ki does the source give for `CC(C)(Oc1ccccc1)C(=NC#N)NC12CCC(C#N)(CC1)C2` [Example 83, N′-cyano-N-(4-cyanobicyclo[2.2.1]hept-1-yl)-2-methyl-2-phenoxypropanimidamide] here?
A: 100 to 1000 nM

Q: `CC(C)(C(=NC#N)NC1C2CC3CC1CC(C(N)=O)(C3)C2)N1CCN(c2ccc(C(F)(F)F)cn2)CC1` (centres unmarked) [Example 31, (E)-4-[((1E)-N-Cyano-2-methyl-2-{4-[5-(trifluoromethyl)pyridin-2-yl]piperazin-1-yl}propanimidoyl)amino]adamantane-1-carboxamide] was tested. Which Ki did it give?
A: 100 to 1000 nM

Q: Which Ki does the source give for `CC(C)(Oc1ccc(Cl)cn1)C(=NC#N)NC1C2CC3CC1CC(C#N)(C3)C2` (centres unmarked) [Example 59, (1E)-2-[(5-chloropyridin-2-yl)oxy]-N′-cyano-N-[(E)-5-cyanoadamantan-2-yl]-2-methylpropanimidamide] here?
A: 100 to 1000 nM
